Assay results reported in PubChem BioAssay (NCI).
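Values below derive from 48-hour exposures of cells grown in 96-well plates, with endpoints linearly interpolated between the two concentrations bracketing the appropriate inhibition level. GI50 is the concentration that inhibits growth by half. TGI denotes the concentration required for complete inhibition of growth.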

Columns and labels:
Assay in all cases: growth of human tumour cells (NCI), 48 h
T-47D breast = test system: T-47D breast
RXF-631 renal = test system: RXF-631 renal
MDA-N = test system: MDA-N
786-0 renal = test system: 786-0 renal

Compound | GI50 (T-47D breast) [µM] | TGI (T-47D breast) [µM] | TGI (RXF-631 renal) [µM] | TGI (MDA-N) [µM] | TGI (786-0 renal) [µM]
C[C@]12CCc3nc(Nc4ccccc4)sc3C1=CC[C@@H]1[C@@H]2CC[C@]2(C)/C(=N/NC(N)=S)CC[C@@H]12 | 2.85 | > 100 |  |  | 
COc1ccc(/C(Cl)=C(\C=O)c2ccc(F)cc2)cc1OC |  |  | 49.2 |  | 
N=C(N)c1ccc(N=Nc2c(O)ccc3c2[nH]c2ccccc23)cc1 |  |  |  | 50.6 | 
Cc1ccc(S(=O)(=O)OCC(=O)O)cc1 |  | > 100 |  | > 100 | > 100
